Results as given in ChEMBL document CHEMBL5233256, “Flavaglines as natural products targeting eIF4A and prohibitins: From traditional Chinese medicine to antiviral activity against coronaviruses” (Eur J Med Chem, 2020).

Legend:
Hepatitis C virus = experiment: Antiviral activity against HCV infected in human Huh-7.5.1 cells assessed as reduction in viral infection incubated for 48 hrs; format: functional, organism-based, Hepacivirus hominis; settings: Huh-7.5.1, 48 h
Human coronavirus 229E = experiment: Antiviral activity against hCoV-229E infected in human MRC5 cells incubated for 1 hr by crystal violet staining based plaque assay; format: functional, organism-based
[1] = system: Middle East respiratory syndrome-related coronavirus; experiment: Antiviral activity against MERS-COV infected in human MRC5 cells incubated for 1 hr by crystal violet staining based plaque assay; format: functional, organism-based
Poliovirus 1 = experiment: Antiviral activity against human poliovirus 1 infected in human MRC5 cells incubated for 1 hr by crystal violet staining based plaque assay; format: functional, organism-based; settings: Enterovirus C, MRC5, 1 h
SARS-CoV-2 = experiment: Antiviral activity against SARS-CoV-2 USA_WA1/2020 infected in African green monkey Vero E6 cells assessed as reduction in virus replication preincubated with cell for 2 hrs followed by viral infection for 1 hr and measured after 48 hrs by RT-qPCR method; format: functional; settings: Severe acute respiratory syndrome coronavirus 2, USA_WA1/2020, Vero C1008; time 51 hrs

Compound `COc1ccc([C@@]23Oc4cc(OC)cc(OC)c4[C@]2(O)c2nc4n(c(=O)c2[C@H]3c2ccccc2)CCC4)cc1` has an EC50 (Hepatitis C virus) of 0.04 nM.

For `COc1ccc([C@@]23Oc4cc(OC)cc(OC)c4[C@]2(O)[C@H](O)[C@H](C(=O)N(C)C)[C@H]3c2ccccc2)cc1` [ROCAGLAMIDE], the EC50 (Hepatitis C virus) was 4 nM.

`COC(=O)[C@H]1[C@@H](O)[C@@]2(O)c3c(OC)cc(O[C@@H]4O[C@@H]([C@H](O)CO)CO[C@H]4OC)cc3O[C@@]2(c2ccc(OC)cc2)[C@@H]1c1ccccc1` [SILVESTROL] was tested, and the EC50 (Human coronavirus 229E; MRC5, 1 h) was 3 nM, the EC90 (Human coronavirus 229E; MRC5, time 1 hrs) was 12 nM and the EC50 ([1]; MRC5, 1 h) was 1.3 nM. It also gave an EC90 ([1]; MRC5, time 1 hrs) of 27 nM and an EC50 (Poliovirus 1) of 20 nM.

`COc1cc2c(c(OC)n1)[C@]1(O)[C@H](O)[C@H](CN(C)C)[C@@H](c3ccccc3)[C@]1(c1ccc(C#N)cc1)O2` [ZOTATIFIN] was tested, and the IC90 (SARS-CoV-2) was 37 nM.
